Experimental data published in patent publication US20220089541A1, “Compounds for the Treatment of Kinase-Dependent Disorders” (Exelixis, Inc., priority 2019, published 2022).
pIC50: −log10 of the molar value.

Tests used:
[1] = microsomes, pH 7.4
Experimental: (§1) Liver microsomes tissue fractions were used for in vitro assessment of metabolic stability of compounds by cytochrome P450 (CYP450) (for example, CYP3A4, CYP2C9) mediated phase I oxidation, and metabolism through other pathways. Human, mouse, rat, and dog liver microsomes tissue fractions were obtained from Corning Gentest and BioreclamationIVT.
(§2) The assay was carried out in 96-well microtiter plates. Compounds were incubated (N=l) at 37° C. in the presence of liver microsomes. Reaction mixtures (25 μL) contained a final concentration of 1 μM test compound, 0.5 mg/mL liver microsomes (LM) protein, and 1 mM NADPH in 100 mM potassium phosphate, pH 7.4 buffer with 3.3 mM MgCl2. The extent of metabolism was calculated as the disappearance of the test compound, compared to the 0-min control reaction incubations. Verapamil was included as a positive control to verily assay performance.
(§3) At each of the four time points, 150 μL of quench solution (100% acetonitrile with 0.1% formic acid) with internal standard (bucetin for positive ESI mode) was transferred to each well. Plates were sealed and centrifuged at 10° C. for 15 minutes at 4000 rpm. The supernatant was transferred to fresh plates for LC/MS/MS analysis.
(§4) All samples were analyzed on LC/MS/MS using an AB Sciex API 4000 instrument, coupled to a Shimadzu LC-20AD LC Pump system. Analytical samples were separated using a Waters Atlantis T3 dC18 reverse phase HPLC column (20 mm×2.1 mm) at a flow rate of 0.5 mL/min. The mobile phase consisted of 0.1% formic acid in water (solvent A) and 0.1% formic acid in 100% acetonitrile (solvent B).

[2] = microsomes, pH 7.4; remark: listed apart in the source
Experimental: as §1, §2, §3, §4

[3] = microsomes, pH 7.4; remark: listed apart in the source
Experimental: as §1, §2, §3, §4

Met = biological target: T1, Met (Homo sapiens, UniProt P08581); assay: Met autophosphorylation ELISA in PC-3 cells; type: cell-based; details: PC-3 prostate cancer cells, HGF-stimulated, phospho-Met ELISA, 1 h compound incubation; read-out: c-Met IC50
T1 construct: host or cells: PC-3 prostate cancer cells
Experimental: Example B: Met Autophosphorylation ELISA in PC-3 Cells
PC-3 prostate cancer cells (ATCC #CRL-1435) were seeded at 4×10^4 cells/well onto 24-well plates (Greiner #662165), in DMEM (Thermo Fisher #11995-040) containing 10% FBS (Thermo Fisher #26140-079), 1% MEM NEAA (Thermo Fisher #11140-050), 1% GlutaMax (Thermo Fisher #35050-061), and 1% Penicillin Streptomycin (Thermo Fisher #15140-122). PC-3 cells were incubated at 37° C., 5% CO2 for 24 h and then starved for 3 h in serum-free medium. Test compounds were serially diluted to produce an 8-point dose curve in fresh serum-free medium to a final concentration of 0.3% DMSO (vehicle) and added to the cells and incubated for 1 h. Cells were then stimulated with 100 ng/mL recombinant human HGF (R&D Systems #294-HG-250) for 10 min, washed with cold PBS, and immediately lysed with 130 μL of cold IX lysis buffer [20 mM Tris, 137 mM sodium chloride, 2 mM EDTA, 10% glycerol, 1% NP-40 alternative, 1 mM activated sodium orthovanadate, 1 mM PefaBloc SC (Sigma-Aldrich #11429868001), protease/phosphatase inhibitor tablet (Thermo Fisher #A32959)]. Lysates were clarified by centrifugation and 100 μL/well added into the PathScan phospho-Met (panTyr) Sandwich ELISA (Cell Signaling Technology #7333). Assay was performed according to manufacturer's instructions. Positive control wells (100% activity) contained HGF-stimulated, DMSO-treated cell lysates. Negative control wells (0% activity) contained HGF-stimulated, reference inhibitor-treated cell lysates. IC50 values were calculated by nonlinear regression analysis using a 4-parameter logistic curve fit in ActivityBase XE (IDBS).

[4] = Microsomal assay, rat liver microsome stability; details: liver microsomes, pH 7.4
Experimental: as §1, §2, §3, §4

[5] = Microsomal assay, human liver microsome stability; details: liver microsomes, pH 7.4
Experimental: as §1, §2, §3, §4

KDR = biological target: T2, KDR (Homo sapiens, UniProt P35968); assay: KDR autophosphorylation ELISA in HUVEC cells; type: cell-based; details: VEGF165-stimulated, phospho-KDR ELISA, 1 h compound incubation
T2 construct: host or cells: HUVEC (human umbilical vein endothelial cells)
Experimental: Example C: KDR Autophosphorylation ELISA in HUVEC Cells
umbilical vein endothelial cells or HUVEC (Lonza #C2519A) were seeded at 2×10^4 cells/well onto 96-well plates (Corning #3904), in EGM-2 growth medium (Lonza #CC-3162) containing 1% Penicillin Streptomycin (Thermo Fisher #15140-122). HUVEC cells were incubated at 37° C., 5% CO2 for 24 h and then starved for 24 h in serum-free EBM-2 basal medium (Lonza #CC-3156) containing 1% Penicillin Streptomycin. Test compounds were serially diluted to produce an 8-point dose curve in fresh serum-free medium to a final concentration of 0.3% DMSO (vehicle) and added to the cells and incubated for 1 h. Cells were then stimulated with 100 ng/mL recombinant human VEGF165 (R&D Systems #293-VE-500) for 5 min, washed with cold PBS, and immediately lysed with 130 μL of cold IX lysis buffer [20 mM Tris, 137 mM sodium chloride, 2 mM EDTA, 10% glycerol, 1% NP-40 alternative, 1 mM activated sodium orthovanadate, 1 mM PefaBloc SC (Sigma-Aldrich #11429868001), protease/phosphatase inhibitor tablet (Thermo Fisher #A32959)]. Lysates were collected and 100 μL/well added into the human phospho-KDR DuoSet IC ELISA (R&D Systems #DYC 1766-2). Assay was performed according to manufacturer's instructions and sample phospho-KDR concentrations were extrapolated using human phospho-KDR control (R&D Systems #841421) as a standard. Positive control wells (100% activity) contained VEGF165-stimulated, DMSO-treated cell lysates. Negative control wells (0% activity) contained non-stimulated cell lysates. IC50 values were calculated by nonlinear regression analysis using a 4-parameter logistic curve fit in ActivityBase XE (IDBS).

[6] = Microsomal assay, mouse liver microsome stability; details: liver microsomes, pH 7.4
Experimental: as §1, §2, §3, §4

AXL = biological target: T3, AXL (Homo sapiens, UniProt P30530); assay: AXL autophosphorylation ELISA in A-172 cells; type: cell-based; details: A-172 glioblastoma cells, Gas6-stimulated, phospho-AXL ELISA, 1 h compound incubation
T3 construct: host or cells: A-172 glioblastoma cells
T3 sequence (P30530 26-894): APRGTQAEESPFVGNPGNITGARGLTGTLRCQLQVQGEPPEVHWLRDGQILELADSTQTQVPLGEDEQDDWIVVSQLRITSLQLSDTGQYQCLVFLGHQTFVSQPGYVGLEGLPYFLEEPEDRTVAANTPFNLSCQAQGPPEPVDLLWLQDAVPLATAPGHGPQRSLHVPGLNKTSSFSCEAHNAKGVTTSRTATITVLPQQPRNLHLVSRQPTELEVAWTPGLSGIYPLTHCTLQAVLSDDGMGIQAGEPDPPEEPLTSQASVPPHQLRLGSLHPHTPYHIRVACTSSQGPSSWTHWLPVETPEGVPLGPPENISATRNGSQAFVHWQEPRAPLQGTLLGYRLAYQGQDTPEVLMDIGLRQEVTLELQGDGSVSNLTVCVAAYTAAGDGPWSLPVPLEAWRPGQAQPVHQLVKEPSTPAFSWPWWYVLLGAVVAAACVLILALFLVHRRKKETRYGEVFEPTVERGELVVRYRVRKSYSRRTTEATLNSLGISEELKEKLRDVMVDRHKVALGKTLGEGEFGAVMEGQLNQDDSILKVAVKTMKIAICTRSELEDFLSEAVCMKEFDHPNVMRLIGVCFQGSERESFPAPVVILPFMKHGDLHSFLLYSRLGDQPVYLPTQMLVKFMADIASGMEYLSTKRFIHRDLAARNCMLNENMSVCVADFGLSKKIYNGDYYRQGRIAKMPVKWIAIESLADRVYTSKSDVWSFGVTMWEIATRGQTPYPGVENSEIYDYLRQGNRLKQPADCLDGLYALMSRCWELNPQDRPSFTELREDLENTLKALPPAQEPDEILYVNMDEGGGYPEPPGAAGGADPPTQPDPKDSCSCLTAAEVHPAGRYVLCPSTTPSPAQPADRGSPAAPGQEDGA
Experimental: Example A: AXL Autophosphorylation ELISA in A-172 Cells
A-172 glioblastoma cells (ATCC #CRL-1620) were seeded at 2.5×10^5 cells/well onto 24-well plates (Greiner #662165), in DMEM (Thermo Fisher #11995-040) containing 10% FBS (Thermo Fisher #26140-079), 1% MEM NEAA (Thermo Fisher #11140-050), 1% GlutaMax (Thermo Fisher #35050-061), and 1% Penicillin Streptomycin (Thermo Fisher #15140-122). A-172 cells were incubated at 37° C., 5% CO2 for 24 h and then starved for 24 h in serum-free medium. Test compounds were serially diluted to produce an 8-point dose curve in fresh serum-free medium to a final concentration of 0.3% DMSO (vehicle) and added to the cells and incubated for 1 h. Cells were then stimulated with 1 μg/mL recombinant human Gas6 (R&D Systems #885-GSB-500) for 15 min, washed with cold PBS, and immediately lysed with 150 μL of cold IX lysis buffer [20 mM Tris, 137 mM sodium chloride, 2 mM EDTA, 10% glycerol, 1% NP-40 alternative, 1 mM activated sodium orthovanadate, 1 mM PefaBloc SC (Sigma-Aldrich #11429868001), protease/phosphatase inhibitor tablet (Thermo Fisher #A32959)]. Lysates were collected and 100 μL/well added into the human phospho-AXL DuoSet IC ELISA (R&D Systems #DYC2228-2). Assay was performed according to manufacturer's instructions and sample phospho-AXL concentrations were extrapolated using human phospho-AXL control (R&D Systems #841645) as a standard. Positive control wells (100% activity) contained Gas6-stimulated, DMSO-treated cell lysates. Negative control wells (0% activity) contained Gas6-stimulated, reference inhibitor-treated cell lysates. IC50 values were calculated by nonlinear regression analysis using a 4-parameter logistic curve fit in ActivityBase XE (IDBS).

T1 sequence (P08581 25-1390): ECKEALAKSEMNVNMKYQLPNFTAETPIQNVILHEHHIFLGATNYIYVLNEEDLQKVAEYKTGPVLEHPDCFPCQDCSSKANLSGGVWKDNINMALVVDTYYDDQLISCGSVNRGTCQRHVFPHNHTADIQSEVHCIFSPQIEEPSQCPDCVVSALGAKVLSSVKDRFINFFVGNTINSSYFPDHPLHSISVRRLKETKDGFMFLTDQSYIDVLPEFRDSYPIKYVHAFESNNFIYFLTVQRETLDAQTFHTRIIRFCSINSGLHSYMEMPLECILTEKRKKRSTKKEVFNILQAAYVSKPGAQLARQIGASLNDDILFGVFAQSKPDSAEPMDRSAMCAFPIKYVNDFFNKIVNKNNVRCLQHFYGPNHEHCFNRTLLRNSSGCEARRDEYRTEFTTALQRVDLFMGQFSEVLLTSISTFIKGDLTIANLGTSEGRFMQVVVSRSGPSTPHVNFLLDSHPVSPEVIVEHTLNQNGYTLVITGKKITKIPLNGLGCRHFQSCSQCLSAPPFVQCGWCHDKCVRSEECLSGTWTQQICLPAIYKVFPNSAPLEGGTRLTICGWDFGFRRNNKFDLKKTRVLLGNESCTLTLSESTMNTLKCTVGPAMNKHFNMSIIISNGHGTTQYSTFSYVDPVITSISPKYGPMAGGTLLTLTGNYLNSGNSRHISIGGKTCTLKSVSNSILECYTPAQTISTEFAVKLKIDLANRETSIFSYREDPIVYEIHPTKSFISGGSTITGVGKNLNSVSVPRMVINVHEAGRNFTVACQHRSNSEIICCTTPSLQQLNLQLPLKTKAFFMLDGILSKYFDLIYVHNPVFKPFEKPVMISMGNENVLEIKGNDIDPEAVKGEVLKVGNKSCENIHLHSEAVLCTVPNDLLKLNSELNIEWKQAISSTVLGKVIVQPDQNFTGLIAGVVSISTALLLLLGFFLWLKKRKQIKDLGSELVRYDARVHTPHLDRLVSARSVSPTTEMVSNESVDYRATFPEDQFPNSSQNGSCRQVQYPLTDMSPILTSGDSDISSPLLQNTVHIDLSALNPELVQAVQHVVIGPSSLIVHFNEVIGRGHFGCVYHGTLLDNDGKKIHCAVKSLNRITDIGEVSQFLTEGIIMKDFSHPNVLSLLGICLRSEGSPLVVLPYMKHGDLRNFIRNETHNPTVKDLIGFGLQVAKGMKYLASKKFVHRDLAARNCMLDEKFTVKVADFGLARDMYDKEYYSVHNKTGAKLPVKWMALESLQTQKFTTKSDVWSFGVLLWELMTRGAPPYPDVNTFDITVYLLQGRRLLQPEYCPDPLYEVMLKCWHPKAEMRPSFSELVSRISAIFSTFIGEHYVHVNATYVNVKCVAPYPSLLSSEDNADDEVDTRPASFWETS
T2 sequence (P35968 20-1356): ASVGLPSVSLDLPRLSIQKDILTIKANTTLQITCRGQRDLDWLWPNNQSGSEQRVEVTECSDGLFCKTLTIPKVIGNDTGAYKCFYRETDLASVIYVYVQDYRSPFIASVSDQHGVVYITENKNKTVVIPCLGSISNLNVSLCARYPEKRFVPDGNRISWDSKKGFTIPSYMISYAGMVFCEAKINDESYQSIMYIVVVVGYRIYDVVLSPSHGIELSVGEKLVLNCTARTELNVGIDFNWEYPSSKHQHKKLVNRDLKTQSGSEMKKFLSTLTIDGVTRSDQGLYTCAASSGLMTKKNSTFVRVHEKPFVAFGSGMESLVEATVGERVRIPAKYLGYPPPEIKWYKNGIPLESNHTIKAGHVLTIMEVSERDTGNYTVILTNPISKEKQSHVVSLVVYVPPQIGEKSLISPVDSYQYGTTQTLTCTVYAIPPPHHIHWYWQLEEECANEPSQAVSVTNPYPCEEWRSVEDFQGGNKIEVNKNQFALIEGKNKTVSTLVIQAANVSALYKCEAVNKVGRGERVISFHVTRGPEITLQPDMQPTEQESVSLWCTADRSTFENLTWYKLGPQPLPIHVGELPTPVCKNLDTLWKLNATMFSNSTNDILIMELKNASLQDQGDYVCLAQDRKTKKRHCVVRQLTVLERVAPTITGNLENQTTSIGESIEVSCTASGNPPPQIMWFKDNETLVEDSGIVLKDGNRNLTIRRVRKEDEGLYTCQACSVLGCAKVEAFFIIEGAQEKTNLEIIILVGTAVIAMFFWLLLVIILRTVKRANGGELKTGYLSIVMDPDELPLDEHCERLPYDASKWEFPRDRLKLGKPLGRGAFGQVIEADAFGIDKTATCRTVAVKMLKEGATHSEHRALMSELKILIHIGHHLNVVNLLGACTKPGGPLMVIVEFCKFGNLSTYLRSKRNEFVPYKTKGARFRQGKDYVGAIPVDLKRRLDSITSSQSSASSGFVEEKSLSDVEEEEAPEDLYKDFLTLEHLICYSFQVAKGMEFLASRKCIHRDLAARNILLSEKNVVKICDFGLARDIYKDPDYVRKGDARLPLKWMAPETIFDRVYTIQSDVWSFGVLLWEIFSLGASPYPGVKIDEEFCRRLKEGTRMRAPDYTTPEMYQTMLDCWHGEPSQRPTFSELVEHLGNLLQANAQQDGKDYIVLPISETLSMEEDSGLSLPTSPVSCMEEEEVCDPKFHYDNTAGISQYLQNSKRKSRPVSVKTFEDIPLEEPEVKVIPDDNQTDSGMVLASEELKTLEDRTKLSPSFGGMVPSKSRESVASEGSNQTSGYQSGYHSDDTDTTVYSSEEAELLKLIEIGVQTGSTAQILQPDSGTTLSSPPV

Molecule | Rat Liver Microsome Stability CLint (μL/min/million cells) [1] | Rat Liver Microsome Stability t½ [1] | Human Liver Microsome Stability CLint (μL/min/million cells) [2] | Human Liver Microsome Stability t½ [2] | Mouse Liver Microsome Stability CLint (μL/min/million cells) [3] | Mouse Liver Microsome Stability t½ [3] | pIC50 (Met) | half-life at 1 μM [4] | half-life at 1 μM [5] | pIC50 (KDR) | half-life at 1 μM [6] | pIC50 (AXL)
1-N-[4-(6,7-Dimethoxyquinolin-4-yl)oxyphenyl]-1-N′-(4-fluorophenyl)-1-N′-(methoxymethyl)cyclopropane-1,1-dicarboxamide [Compound 49] | 1028 | 1.35 min | 1052 | 1.3 min | 928 | 1.49 min |  |  |  |  |  | 
COc1cc2c(Oc3ccc(NC(=O)C4(C(=O)N(C)c5ccc(F)cc5)CC4)cc3F)ccnc2cc1OCCCN1CCOCC1 [Compound 11, N-(3-Fluoro-4-((6-methoxy-7-(3-morpholinopropoxy)quinolin-4-yl)oxy)phenyl)-N-(4-fluorophenyl)-N-methylcyclopropane-1,1-dicarboxamide] |  |  |  |  |  |  | < 6.52 | 1.6 min | 1.6 min | < 6.52 | 7.3 min | 
COc1cc2nccc(Oc3ccc(NC(=O)C4(C(=O)N(C)c5ccc(F)cc5)CC4)cc3F)c2nc1OC [Compound 44, 1-N-[4-[(6,7-Dimethoxy-1,5-naphthyridin-4-yl)oxy]-3-fluorophenyl]-1-N′-(4-fluorophenyl)-1-N′-methylcyclopropane-1,1-dicarboxamide] |  |  |  |  |  |  | < 6.52 |  |  | < 6.52 |  | < 6.52
